The target of experiment [1] is T1, AtACO2 (Arabidopsis thaliana, UniProt Q41931). Nature of the experiment: ACO enzymatic activity assay and kinetic analysis (ethylene by GC-FID). The format is biochemical. Conditions: 200 μM.
In experiment [2] the target is T1, AtACO2. Nature of the experiment: Isothermal titration calorimetry. Conditions: ITC, in the presence of Zn2+, 25 °C; read-out: dissociation constant (KD), AtACO2. The format is binding. Here is the method:
ITC experiments were performed using a MicroCal iTC200 (GE Healthcare) at 25 °C. Small molecules and proteins were in the same buffer containing 25 mM Bis–Tris (pH 6.0), 150 mM NaCl, 0.1 mM ZnCl2 (or 0.2 mM FeSO4 for POA and AtACO2). The concentration of small molecules in the syringe was 1 mM, and the concentration of proteins in the cell was 90 μM. Data were analysed with a one-site model using Origin 7.0 (OriginLab).
(In ITC the heat of successive injections is recorded.)

Experiment [3] deals with ethylene production of Arabidopsis seedlings. The experiment can be described thus: Measurement of ethylene production of seedlings (GC-FID). It counts as in vivo, Arabidopsis thaliana. Conditions: Supplementary Fig. 10. Here is the method: Ethylene production was determined as follows: 30 3-day-old etiolated or 5-day-old green seedlings of Col-0, eto1-2 or other mutants were selected randomly and sealed in a 30 ml vial containing 3 ml liquid MS medium supplemented with indicated treatments. The vial was sealed with a rubber stopper for 24 h at 22 °C prior to ethylene sampling. A 250 μl sample of the headspace gas was withdrawn using a gas-tight syringe from each chamber through the septum stopper, and injected into a gas chromatograph (Agilent 6890NGC, Agilent Technologies, USA) that was equipped with a HP-PLOTQ column (40 m × 530 μm × 40 μm) and a flame ionization detector (FID)[44]. Separations were carried out at 60 °C using N2 as the carrier gas. The area of the ethylene peak was integrated with Agilent Chemstation and results were expressed as the average relative ethylene production (%) of each treatment.

Experiment [4] has as its system Arabidopsis PSB-D suspension cultured cells. Nature of the experiment: Ethylene production of suspension cultured cells. The format is cell-based, Arabidopsis thaliana.

T1 sequence (Q41931 1-303): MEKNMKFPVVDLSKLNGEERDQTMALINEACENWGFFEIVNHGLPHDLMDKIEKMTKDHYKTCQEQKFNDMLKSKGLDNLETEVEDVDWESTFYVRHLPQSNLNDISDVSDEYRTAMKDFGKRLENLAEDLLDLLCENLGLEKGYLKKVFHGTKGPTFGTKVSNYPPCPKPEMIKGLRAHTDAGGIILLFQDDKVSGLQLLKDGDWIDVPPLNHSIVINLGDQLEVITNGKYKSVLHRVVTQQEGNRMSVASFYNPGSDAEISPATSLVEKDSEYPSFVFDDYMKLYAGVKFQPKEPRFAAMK

Usually Kd stands for the free concentration of one partner at which half of the binding sites on the other are occupied at equilibrium, for simple one-to-one binding. Consider `O=C(O)c1ccccn1` [2-PA, 2-picolinic acid], for which, in experiment [1], the “inhibition effect on AtACO2 compared with POA” value is “stronger than that of POA” and the “relative AtACO2 activity treated with POA derivatives” value is reported as “directly inhibited”. Further, in experiment [2], the dissociation constant (Kd) turned out to be 2800 nM. Also, the “ethylene production in Arabidopsis seedlings” value in experiment [3] was “remarkably inhibited”. Also, in experiment [4], the “ethylene production in suspension cultured cells” value is “remarkably inhibited”.

`NC(=O)c1ccccn1` [2-picolinamide]: in experiment [3], the “ethylene production in Arabidopsis seedlings” value is on record as “remarkably inhibited”. Moreover, the “ethylene production in suspension cultured cells” value in experiment [4] was “remarkably inhibited”.

As for `CC(C)(N)C(=O)O` [AIB, α-aminoisobutyric acid, reference compound], the “inhibition effect on AtACO2 compared with POA” value in experiment [1] was “much weaker inhibition effect than POA”.
